± gives the expanded uncertainty stated by the source.
Assay: molar heat capacity at saturation pressure
Conditions: Vacuum adiabatic calorimetry

CCCCn1cc[n+](C)c1.O=S(=O)([O-])C(F)(F)F [1-butyl-3-methylimidazolium trifluoromethanesulfonate]
Conditions | molar heat capacity [J/K/mol]
170.36 K, Crystal | 235.9 ± 0.4
171.28 K, Crystal | 236.8 ± 0.4
172.71 K, Crystal | 238.3 ± 0.4
173.26 K, Crystal | 238.8 ± 0.4
175.07 K, Crystal | 240.6 ± 0.4
175.23 K, Crystal | 240.9 ± 0.4
177.2 K, Crystal | 242.9 ± 0.4
177.42 K, Crystal | 243.1 ± 0.4
179.17 K, Crystal | 245 ± 0.4
179.77 K, Crystal | 245.6 ± 0.4
181.13 K, Crystal | 247.1 ± 0.5
182.11 K, Crystal | 248.1 ± 0.5
183.1 K, Crystal | 249.2 ± 0.5
184.46 K, Crystal | 250.6 ± 0.5
185.06 K, Crystal | 251.3 ± 0.5
186.8 K, Crystal | 253.2 ± 0.5
187.02 K, Crystal | 253.5 ± 0.5
188.97 K, Crystal | 255.7 ± 0.5
189.13 K, Crystal | 255.8 ± 0.5
190.92 K, Crystal | 257.9 ± 0.5
191.47 K, Crystal | 258.4 ± 0.5
192.87 K, Crystal | 260 ± 0.5
193.8 K, Crystal | 260.9 ± 0.5
194.82 K, Crystal | 262.1 ± 0.5
196.12 K, Crystal | 263.5 ± 0.5
196.77 K, Crystal | 264.3 ± 0.5
198.44 K, Crystal | 266.1 ± 0.5
198.72 K, Crystal | 266.6 ± 0.5
200.66 K, Crystal | 268.7 ± 0.5
200.76 K, Crystal | 268.7 ± 0.5
202.67 K, Crystal | 271 ± 0.5
203.13 K, Crystal | 271.4 ± 0.5
204.73 K, Crystal | 273.3 ± 0.5
205.57 K, Crystal | 274.2 ± 0.5
206.78 K, Crystal | 275.7 ± 0.5
208 K, Crystal | 276.9 ± 0.5
208.82 K, Crystal | 278.1 ± 0.5
210.42 K, Crystal | 279.6 ± 0.5
210.87 K, Crystal | 280.4 ± 0.5
212.84 K, Crystal | 282.5 ± 0.5
212.92 K, Crystal | 282.7 ± 0.5
214.96 K, Crystal | 285 ± 0.5
215.25 K, Crystal | 285.3 ± 0.5
217 K, Crystal | 287.4 ± 0.5
217.66 K, Crystal | 288 ± 0.5
219.02 K, Crystal | 289.6 ± 0.5
220.07 K, Crystal | 290.8 ± 0.5
221.05 K, Crystal | 292.2 ± 0.5
222.47 K, Crystal | 293.7 ± 0.5
223.08 K, Crystal | 294.5 ± 0.5
224.86 K, Crystal | 296.5 ± 0.5
225.1 K, Crystal | 296.8 ± 0.5
227.12 K, Crystal | 299.4 ± 0.5
227.25 K, Crystal | 299.4 ± 0.5
229.13 K, Crystal | 301.7 ± 0.5
229.63 K, Crystal | 302.3 ± 0.5
231.14 K, Crystal | 304 ± 0.5
232 K, Crystal | 305.2 ± 0.5
233.14 K, Crystal | 306.6 ± 0.5
234.37 K, Crystal | 308.1 ± 0.5
235.15 K, Crystal | 308.9 ± 0.5
236.73 K, Crystal | 311 ± 0.5
237.14 K, Crystal | 311.5 ± 0.5
239.09 K, Crystal | 313.8 ± 0.5
239.13 K, Crystal | 313.8 ± 0.5
241.12 K, Crystal | 316.1 ± 0.5
241.44 K, Crystal | 316.7 ± 0.5
243.1 K, Crystal | 318.7 ± 0.5
243.78 K, Crystal | 319.6 ± 0.5
245.08 K, Crystal | 321 ± 0.5
246.12 K, Crystal | 322.2 ± 0.5
247.06 K, Crystal | 323.3 ± 0.5
248.45 K, Crystal | 325.1 ± 0.5
249.03 K, Crystal | 325.9 ± 0.5
250.76 K, Crystal | 328 ± 0.5
250.78 K, Crystal | 328 ± 0.5
250.99 K, Crystal | 328.3 ± 0.5
252.81 K, Crystal | 330.6 ± 0.5
252.95 K, Crystal | 330.6 ± 0.5
253.1 K, Crystal | 330.8 ± 0.5
254.78 K, Crystal | 332.9 ± 0.5
254.91 K, Crystal | 333.2 ± 0.5
255.41 K, Crystal | 333.7 ± 0.5
256.73 K, Crystal | 335.5 ± 0.5
256.86 K, Crystal | 335.5 ± 0.5
257.72 K, Crystal | 336.3 ± 0.5
258.69 K, Crystal | 337.8 ± 0.5
258.81 K, Crystal | 337.8 ± 0.5
260.02 K, Crystal | 339.2 ± 0.5
260.34 K, Crystal | 339.8 ± 0.5
260.64 K, Crystal | 340.4 ± 0.5
260.75 K, Crystal | 340.4 ± 0.5
262.32 K, Crystal | 342.1 ± 0.5
262.38 K, Crystal | 342.4 ± 0.5
262.59 K, Crystal | 342.7 ± 0.5
262.69 K, Crystal | 342.7 ± 0.5
264.34 K, Crystal | 345 ± 0.5
264.53 K, Crystal | 345.3 ± 0.5
264.6 K, Crystal | 345 ± 0.5
264.62 K, Crystal | 345.3 ± 0.5
265.54 K, Crystal | 346.1 ± 0.5
266.29 K, Crystal | 347.3 ± 0.6
266.46 K, Crystal | 347.6 ± 0.6
266.56 K, Crystal | 347.6 ± 0.6
266.89 K, Crystal | 347.9 ± 0.6
267.48 K, Crystal | 348.7 ± 0.6
268.23 K, Crystal | 349.9 ± 0.6
268.4 K, Crystal | 349.9 ± 0.6
268.49 K, Crystal | 350.2 ± 0.6
269.17 K, Crystal | 350.7 ± 0.6
291.91 K, Liquid | 424.4 ± 0.6
293.17 K, Liquid | 425 ± 0.6
293.82 K, Liquid | 425.6 ± 0.6
294.28 K, Liquid | 425.6 ± 0.6
295.28 K, Liquid | 426.2 ± 0.6
295.44 K, Liquid | 426.2 ± 0.6
295.71 K, Liquid | 426.5 ± 0.6
297.38 K, Liquid | 427 ± 0.6
297.43 K, Liquid | 427.3 ± 0.6
297.61 K, Liquid | 427.6 ± 0.6
299.48 K, Liquid | 428.2 ± 0.6
301.69 K, Liquid | 429.6 ± 0.6
304 K, Liquid | 430.8 ± 0.6
306.31 K, Liquid | 431.9 ± 0.6
308.62 K, Liquid | 433.1 ± 0.6
310.93 K, Liquid | 434.5 ± 0.6
313.24 K, Liquid | 435.7 ± 0.6
315.55 K, Liquid | 436.8 ± 0.6
317.86 K, Liquid | 438 ± 0.6
320.17 K, Liquid | 439.1 ± 0.6
322.48 K, Liquid | 440.6 ± 0.6
324.79 K, Liquid | 441.7 ± 0.6
327.1 K, Liquid | 443.2 ± 0.6
329.4 K, Liquid | 444.3 ± 0.6
331.71 K, Liquid | 445.5 ± 0.6
334.02 K, Liquid | 446.6 ± 0.6
336.33 K, Liquid | 448.1 ± 0.7
338.64 K, Liquid | 449.2 ± 0.7
340.94 K, Liquid | 450.7 ± 0.7
343.24 K, Liquid | 451.8 ± 0.7
345.55 K, Liquid | 453 ± 0.7
347.85 K, Liquid | 454.3 ± 0.7
350.16 K, Liquid | 455.5 ± 0.7
352.47 K, Liquid | 456.9 ± 0.7
354.77 K, Liquid | 458.1 ± 0.7
357.08 K, Liquid | 459.5 ± 0.7
359.38 K, Liquid | 460.7 ± 0.7
361.68 K, Liquid | 461.8 ± 0.7
363.99 K, Liquid | 463 ± 0.7
366.29 K, Liquid | 464.4 ± 0.7
368.59 K, Liquid | 465.6 ± 0.7
